Measured values from PubChem BioAssay AID248 (DTP/NCI, 2004).
Several values for one entry are separate records, joined by “and”; a condition that tells them apart may be missing. Equal values may be shown once. Toxic doses and inconclusive results are not listed.

System: L1210 leukemia ip in BDF1 mice, survival T/C
Assay: NCI In Vivo Anticancer Drug Screen. Data for tumor model L1210 Leukemia (intraperitoneal) in B6D2F1 (BDF1) mice
Settings: endpoint: mean survival time, higher = longer survival
Method in brief: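 Ratio derived from survival: compound-dosed mice over vehicle-dosed mice, all bearing a transplantable tumor.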

[1] = dose: 100.0 mg/kg/injection, schedule: Q01DX001 (ip), vehicle: saline
[2] = dose: 100.0 mg/kg/injection, schedule: Q01DX009 (ip), vehicle: saline
[3] = dose: 100.0 mg/kg/injection, schedule: Q04DX002 (ip), vehicle: saline
[4] = dose: 100.0 mg/kg/injection, schedule: Q04DX003 (ip), vehicle: saline
[5] = dose: 200.0 mg/kg/injection, schedule: Q01DX001 (ip), vehicle: saline
[6] = dose: 200.0 mg/kg/injection, schedule: Q01DX009 (ip), vehicle: saline
[7] = dose: 200.0 mg/kg/injection, schedule: Q04DX003 (ip), vehicle: saline
[8] = dose: 400.0 mg/kg/injection, schedule: Q01DX001 (ip), vehicle: saline
[9] = dose: 400.0 mg/kg/injection, schedule: Q01DX009 (ip), vehicle: saline
[10] = dose: 400.0 mg/kg/injection, schedule: Q04DX003 (ip), vehicle: saline
[11] = dose: 50.0 mg/kg/injection, schedule: Q01DX009 (ip), vehicle: Klucel (hydroxypropylcellulose) (HPC)
[12] = dose: 100.0 mg/kg/injection, schedule: Q01DX001 (ip), vehicle: carboxymethylcellulose (CMC)
[13] = dose: 400.0 mg/kg/injection, schedule: Q01DX001 (ip), vehicle: carboxymethylcellulose (CMC)
[14] = dose: 100.0 mg/kg/injection, schedule: Q01DX009 (ip), vehicle: Klucel (hydroxypropylcellulose) (HPC)
[15] = dose: 200.0 mg/kg/injection, schedule: Q01DX009 (ip), vehicle: Klucel (hydroxypropylcellulose) (HPC)
[16] = dose: 100.0 mg/kg/injection, schedule: Q04DX003 (ip), vehicle: Klucel (hydroxypropylcellulose) (HPC)
[17] = dose: 200.0 mg/kg/injection, schedule: Q04DX003 (ip), vehicle: Klucel (hydroxypropylcellulose) (HPC)
[18] = dose: 400.0 mg/kg/injection, schedule: Q04DX003 (ip), vehicle: Klucel (hydroxypropylcellulose) (HPC)
[19] = dose: 25.0 mg/kg/injection, schedule: Q01DX009 (ip), vehicle: saline with Tween-80
[20] = dose: 25.0 mg/kg/injection, schedule: Q04DX002 (ip), vehicle: saline with Tween-80
[21] = dose: 50.0 mg/kg/injection, schedule: Q04DX002 (ip), vehicle: saline with Tween-80
[22] = dose: 100.0 mg/kg/injection, schedule: Q04DX002 (ip), vehicle: saline with Tween-80
[23] = dose: 100.0 mg/kg/injection, schedule: Q01DX009 (ip), vehicle: saline with Tween-80

In the case of `O=NN(CCCl)C(=O)Nc1ccc(Oc2ccc(NC(=O)N(CCCl)N=O)cc2)cc1`, the T/C (dose: 375.0 mg/kg/injection, schedule: Q01DX001 (ip), vehicle: carboxymethylcellulose (CMC)) is reported as 192 % of control, the T/C (dose: 500.0 mg/kg/injection, schedule: Q01DX001 (ip), vehicle: carboxymethylcellulose (CMC)) is reported as 198 % of control and the T/C (dose: 750.0 mg/kg/injection, schedule: Q01DX001 (ip), vehicle: carboxymethylcellulose (CMC)) is reported as 190 % of control. The T/C (dose: 1000.0 mg/kg/injection, schedule: Q01DX001 (ip), vehicle: carboxymethylcellulose (CMC)) was 154 % of control and 246 % of control, the T/C (dose: 1250.0 mg/kg/injection, schedule: Q01DX001 (ip), vehicle: carboxymethylcellulose (CMC)) was 104 % of control and the T/C (dose: 1500.0 mg/kg/injection, schedule: Q01DX001 (ip), vehicle: carboxymethylcellulose (CMC)) was 122 % of control. The T/C (dose: 2000.0 mg/kg/injection, schedule: Q01DX001 (ip), vehicle: carboxymethylcellulose (CMC)) was 86 % of control.
For `CC(N)C(=O)O` (centres undefined), the T/C (dose: 25.0 mg/kg/injection, schedule: Q04DX002 (ip), vehicle: saline) was 101 % of control, the T/C (dose: 50.0 mg/kg/injection, schedule: Q04DX002 (ip), vehicle: saline) was 101 % of control and the T/C [1] was 92 % of control. The T/C [2] was 104 % of control, the T/C [3] was 104 % of control and the T/C [4] was 97 % of control. For the same molecule, the T/C [5] was 96 % of control, the T/C [6] was 91 % of control and the T/C [7] was 100 % of control. The T/C [8] was 105 % of control, the T/C [9] was 98 % of control and the T/C [10] was 100 % of control.
`O=C1c2ccccc2C(=O)N1C/C=C/CN1C(=O)c2ccccc2C1=O` was tested, and the T/C [1] was 95 % of control, the T/C [4] was 101 % of control and the T/C [5] was 98 % of control. The T/C [7] was 104 % of control, the T/C [8] was 91 % of control and the T/C [10] was 102 % of control.
`O=C(NC(CBr)CCCBr)c1ccc([N+](=O)[O-])cc1` (centres undefined) was tested, and the T/C (dose: 100.0 mg/kg/injection, schedule: Q04DX003 (ip), vehicle: saline with Tween-80) was 105 % of control, the T/C (dose: 200.0 mg/kg/injection, schedule: Q04DX003 (ip), vehicle: saline with Tween-80) was 94 % of control and the T/C (dose: 400.0 mg/kg/injection, schedule: Q04DX003 (ip), vehicle: saline with Tween-80) was 94 % of control.
For `Cc1cccc(C)c1NC(=S)NC1CC(C)CC(C)(C)C1` (centres undefined), the T/C (dose: 12.5 mg/kg/injection, schedule: Q01DX009 (ip), vehicle: Klucel (hydroxypropylcellulose) (HPC)) was 100 % of control, the T/C (dose: 25.0 mg/kg/injection, schedule: Q01DX009 (ip), vehicle: Klucel (hydroxypropylcellulose) (HPC)) was 109 % of control and the T/C [11] was 96 % of control.
For `CNc1ccc(N=Nc2ccc3ncccc3c2)cc1`, the T/C (dose: 3.8 mg/kg/injection, schedule: Q01DX009 (ip), vehicle: saline) was 98 % of control, the T/C (dose: 6.7 mg/kg/injection, schedule: Q01DX Z (ip), vehicle: carboxymethylcellulose (CMC)) was 98 % of control and the T/C (dose: 7.5 mg/kg/injection, schedule: Q01DX009 (ip), vehicle: saline) was 102 % of control. For the same molecule, the T/C (dose: 10.0 mg/kg/injection, schedule: Q01DX Z (ip), vehicle: carboxymethylcellulose (CMC)) was 92 % of control, the T/C (dose: 15.0 mg/kg/injection, schedule: Q01DX009 (ip), vehicle: saline) was 98 % of control and the T/C (dose: 15.0 mg/kg/injection, schedule: Q01DX Z (ip), vehicle: carboxymethylcellulose (CMC)) was 92 % of control. For the same molecule, the T/C (dose: 30.0 mg/kg/injection, schedule: Q01DX009 (ip), vehicle: saline) was 89 % of control.
In the case of `CCCCCCNC1=C(c2ccccc2)C(=O)C(NCCCCCC)=C(c2ccccc2)C1=O`, the T/C [12] is reported as 88 % of control, the T/C (dose: 200.0 mg/kg/injection, schedule: Q01DX001 (ip), vehicle: carboxymethylcellulose (CMC)) is reported as 94 % of control and the T/C [13] is reported as 96 % of control.
With `CC1=CC(c2ccccc2O)C(=C(C)C)CC1` (centres undefined) the T/C [11] was 96 % of control, the T/C [14] was 93 % of control and the T/C [15] was 89 % of control.
For `ClC1=C(Br)C(Br)(Br)C(=C(Br)Br)C1(Br)Br`, the T/C (dose: 100.0 mg/kg/injection, schedule: Q01DX009 (ip), vehicle: saline sonified) was 96 % of control, the T/C [16] was 106 % of control and the T/C (dose: 200.0 mg/kg/injection, schedule: Q01DX009 (ip), vehicle: saline sonified) was 94 % of control. For the same molecule, the T/C [17] was 103 % of control, the T/C (dose: 400.0 mg/kg/injection, schedule: Q01DX009 (ip), vehicle: saline sonified) was 102 % of control and the T/C [18] was 97 % of control.
In the case of `CCOC(=O)C(C(=O)OCC)c1cc(Cl)nnc1Cl`, the T/C [3] is reported as 91 % of control and the T/C (dose: 200.0 mg/kg/injection, schedule: Q04DX002 (ip), vehicle: saline) is reported as 91 % of control.
`O=C(O)C1C2C=CC(CO)(O2)C1C(=O)O` (centres undefined) was tested, and the T/C [2] was 97 % of control, the T/C [4] was 97 % of control and the T/C [6] was 100 % of control. For the same molecule, the T/C [7] was 92 % of control, the T/C [9] was 96 % of control and the T/C [10] was 95 % of control.
For `Cc1cc(NS(=O)(=O)c2ccc(N=Nc3c(N)nc(N)[nH]c3=O)cc2)nc(C)n1`, the T/C [1] was 97 % of control, the T/C [5] was 89 % of control and the T/C [8] was 92 % of control.
`CCOCCO` was tested, and the T/C (dose: 5.0 mg/kg/injection, schedule: Q01DX009 (ip), vehicle: saline) was 97 % of control, the T/C (dose: 10.0 mg/kg/injection, schedule: Q01DX009 (ip), vehicle: saline) was 90 % of control and the T/C (dose: 20.0 mg/kg/injection, schedule: Q01DX009 (ip), vehicle: saline) was 98 % of control.
In the case of `CN1C(=O)CC(/C=C\[N+](=O)[O-])c2ccccc21` (centres undefined), the T/C [12] is reported as 94 % of control and the T/C [13] is reported as 104 % of control.
For `O=C(c1ccccc1)c1c[nH]c2c(O)ccc(O)c12`, the T/C (dose: 12.5 mg/kg/injection, schedule: Q04DX002 (ip), vehicle: Klucel (hydroxypropylcellulose) (HPC)) was 91 % of control, the T/C (dose: 25.0 mg/kg/injection, schedule: Q04DX002 (ip), vehicle: Klucel (hydroxypropylcellulose) (HPC)) was 95 % of control and the T/C (dose: 50.0 mg/kg/injection, schedule: Q04DX002 (ip), vehicle: Klucel (hydroxypropylcellulose) (HPC)) was 95 % of control.
With `O=c1oc(Cl)cc2oc(=O)n(-c3ccccc3)c(=O)c12` the T/C (dose: 6.25 mg/kg/injection, schedule: Q01DX009 (ip), vehicle: saline with Tween-80) was 106 % of control, the T/C (dose: 12.5 mg/kg/injection, schedule: Q01DX009 (ip), vehicle: saline with Tween-80) was 98 % of control and the T/C [19] was 93 % of control and 109 % of control. The T/C [20] was 98 % of control, the T/C [21] was 102 % of control and the T/C [22] was 96 % of control and 98 % of control.
In the case of `Oc1ccc(-c2cc(O)c(-c3ccc(O)cc3)cc2O)cc1`, the T/C [2] is reported as 95 % of control.
For `CC1OCC2OC(C)OC(C(COC(=O)c3ccc([N+](=O)[O-])cc3)OS(C)(=O)=O)C2O1` (centres undefined), the T/C [14] was 113 % of control, the T/C [16] was 102 % of control and the T/C [15] was 108 % of control. The T/C [17] was 104 % of control, the T/C (dose: 400.0 mg/kg/injection, schedule: Q01DX009 (ip), vehicle: Klucel (hydroxypropylcellulose) (HPC)) was 92 % of control and the T/C [18] was 96 % of control.
`O=C1OC(=O)c2c1cccc2[N+](=O)[O-]` was tested, and the T/C [19] was 97 % of control, the T/C (dose: 50.0 mg/kg/injection, schedule: Q01DX009 (ip), vehicle: saline with Tween-80) was 90 % of control and the T/C [23] was 94 % of control and 88 % of control.
For `CCOC(=O)c1ccc(NC(=S)Nc2ccccc2S)cc1`, the T/C [20] was 101 % of control, the T/C [21] was 101 % of control and the T/C [22] was 93 % of control and 87 % of control.
`O=Cc1ccc(O)c(Br)c1` was tested, and the T/C [23] was 100 % of control, the T/C (dose: 200.0 mg/kg/injection, schedule: Q01DX009 (ip), vehicle: saline with Tween-80) was 109 % of control and the T/C (dose: 400.0 mg/kg/injection, schedule: Q01DX009 (ip), vehicle: saline with Tween-80) was 88 % of control.
In the case of `CC(=O)OCC1OC(Sc2ccc([N+](=O)[O-])cc2[N+](=O)[O-])C(OC(C)=O)C(OC(C)=O)C1OC(C)=O` (centres undefined), the T/C (dose: 100.0 mg/kg/injection, schedule: Q01DX001 (ip), vehicle: saline with Tween-80) is reported as 96 % of control, the T/C (dose: 200.0 mg/kg/injection, schedule: Q01DX001 (ip), vehicle: saline with Tween-80) is reported as 101 % of control and the T/C (dose: 400.0 mg/kg/injection, schedule: Q01DX001 (ip), vehicle: saline with Tween-80) is reported as 93 % of control.
